Experiments:
human Nav1.5 = human Nav1.5 (Homo sapiens (Human), UniProt Q14524); assay: Human Nav1.5 inhibitory activity evaluation (automated patch clamp QPatch16X, HEK293 cells stably expressing human Nav1.5); format: cell-based
Method: Test Example 2: Human Nav1.5 Inhibitory Activity Evaluation
A cell line in which human Nav1.5 was stably expressed in HEK293 cells was used. DMEM supplemeted with 15% fetal bovine serum, 500 μg/ml geneticin, 100 units/ml penicillin, 100 μg/ml streptomycin, 20 mM HEPES was used as culture medium under the conditions of 37° C. and 5% CO2 in T175 flasks to carry out culturing. When 60-80% confluence was reached, a cell suspension of about 0.5-5.0×10^6 cells/mL was prepared. The amount of current through human Nav1.5 was recorded using a fully automatic patch clamp device QPatch16X at room temperature. As the extracellular solution, 145 mM NaCl, 4 mM KCl, 1 mM MgCl2, 2 mM CaCl2, 10 mM Glucose, and 10 mM HEPES at pH 7.4 was used. As the intracellular solution, 135 mM CsF, ⅕ mM EGTA/CsOH, 10 mM HEPES, and 10 mM NaCl at pH 7.3 was used. The test compounds were dissolved in DMSO and diluted with the extracellular solution to attend the DMSO concentration of 0.1% at the time of assay.
The current response was obtained at a sampling frequency of 25 kHz, and noise was removed with a 3 kHz low-pass filter. The holding potential was −80 mV. Correction of the leakage current was carried out by applying a step pulse of −100 mV before the test pulse. In order to investigate human Nav1.5 inhibitory effect of the test compound, test pulses imitating the action potential of cardiomyocytes were continuously given 20 times. The test pulses were given before and after the test compound addition.
The inhibitory activity of the test compound was determined based on the amount of inward current generated by the 20th depolarization pulse, and the 50% inhibitory concentration (IC50) was calculated from the concentration-response curve.

human Nav1.7 = human Nav1.7 (Homo sapiens (Human), UniProt Q15858); assay: Human Nav1.7 inhibitory activity evaluation (automated patch clamp QPatch16X, HEK293A cells stably expressing human Nav1.7 and human Navβ1); format: cell-based
Procedure, shortened: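 QPatch16X whole-cell recordings at room temperature from HEK293A cells stably expressing human Nav1.7 with Navβ1, CsF-based internal solution, pH 7.4 external, 0.1% DMSO. From −100 mV holding, protocol included a 15 s hold at a potential inactivating ~30-40% of channels; IC50 from inward current at the second −10 mV pulse.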

[1] = HEK293 cells stably expressing human Nav1.5, automated patch clamp QPatch16X
[2] = HEK293A cells stably expressing human Nav1.7 and human Navβ1, automated patch clamp QPatch16X
[3] = human Nav1.5, automated patch clamp
[4] = human Nav1.7, automated patch clamp

human Nav1.7, sequence (Q15858 whole entry): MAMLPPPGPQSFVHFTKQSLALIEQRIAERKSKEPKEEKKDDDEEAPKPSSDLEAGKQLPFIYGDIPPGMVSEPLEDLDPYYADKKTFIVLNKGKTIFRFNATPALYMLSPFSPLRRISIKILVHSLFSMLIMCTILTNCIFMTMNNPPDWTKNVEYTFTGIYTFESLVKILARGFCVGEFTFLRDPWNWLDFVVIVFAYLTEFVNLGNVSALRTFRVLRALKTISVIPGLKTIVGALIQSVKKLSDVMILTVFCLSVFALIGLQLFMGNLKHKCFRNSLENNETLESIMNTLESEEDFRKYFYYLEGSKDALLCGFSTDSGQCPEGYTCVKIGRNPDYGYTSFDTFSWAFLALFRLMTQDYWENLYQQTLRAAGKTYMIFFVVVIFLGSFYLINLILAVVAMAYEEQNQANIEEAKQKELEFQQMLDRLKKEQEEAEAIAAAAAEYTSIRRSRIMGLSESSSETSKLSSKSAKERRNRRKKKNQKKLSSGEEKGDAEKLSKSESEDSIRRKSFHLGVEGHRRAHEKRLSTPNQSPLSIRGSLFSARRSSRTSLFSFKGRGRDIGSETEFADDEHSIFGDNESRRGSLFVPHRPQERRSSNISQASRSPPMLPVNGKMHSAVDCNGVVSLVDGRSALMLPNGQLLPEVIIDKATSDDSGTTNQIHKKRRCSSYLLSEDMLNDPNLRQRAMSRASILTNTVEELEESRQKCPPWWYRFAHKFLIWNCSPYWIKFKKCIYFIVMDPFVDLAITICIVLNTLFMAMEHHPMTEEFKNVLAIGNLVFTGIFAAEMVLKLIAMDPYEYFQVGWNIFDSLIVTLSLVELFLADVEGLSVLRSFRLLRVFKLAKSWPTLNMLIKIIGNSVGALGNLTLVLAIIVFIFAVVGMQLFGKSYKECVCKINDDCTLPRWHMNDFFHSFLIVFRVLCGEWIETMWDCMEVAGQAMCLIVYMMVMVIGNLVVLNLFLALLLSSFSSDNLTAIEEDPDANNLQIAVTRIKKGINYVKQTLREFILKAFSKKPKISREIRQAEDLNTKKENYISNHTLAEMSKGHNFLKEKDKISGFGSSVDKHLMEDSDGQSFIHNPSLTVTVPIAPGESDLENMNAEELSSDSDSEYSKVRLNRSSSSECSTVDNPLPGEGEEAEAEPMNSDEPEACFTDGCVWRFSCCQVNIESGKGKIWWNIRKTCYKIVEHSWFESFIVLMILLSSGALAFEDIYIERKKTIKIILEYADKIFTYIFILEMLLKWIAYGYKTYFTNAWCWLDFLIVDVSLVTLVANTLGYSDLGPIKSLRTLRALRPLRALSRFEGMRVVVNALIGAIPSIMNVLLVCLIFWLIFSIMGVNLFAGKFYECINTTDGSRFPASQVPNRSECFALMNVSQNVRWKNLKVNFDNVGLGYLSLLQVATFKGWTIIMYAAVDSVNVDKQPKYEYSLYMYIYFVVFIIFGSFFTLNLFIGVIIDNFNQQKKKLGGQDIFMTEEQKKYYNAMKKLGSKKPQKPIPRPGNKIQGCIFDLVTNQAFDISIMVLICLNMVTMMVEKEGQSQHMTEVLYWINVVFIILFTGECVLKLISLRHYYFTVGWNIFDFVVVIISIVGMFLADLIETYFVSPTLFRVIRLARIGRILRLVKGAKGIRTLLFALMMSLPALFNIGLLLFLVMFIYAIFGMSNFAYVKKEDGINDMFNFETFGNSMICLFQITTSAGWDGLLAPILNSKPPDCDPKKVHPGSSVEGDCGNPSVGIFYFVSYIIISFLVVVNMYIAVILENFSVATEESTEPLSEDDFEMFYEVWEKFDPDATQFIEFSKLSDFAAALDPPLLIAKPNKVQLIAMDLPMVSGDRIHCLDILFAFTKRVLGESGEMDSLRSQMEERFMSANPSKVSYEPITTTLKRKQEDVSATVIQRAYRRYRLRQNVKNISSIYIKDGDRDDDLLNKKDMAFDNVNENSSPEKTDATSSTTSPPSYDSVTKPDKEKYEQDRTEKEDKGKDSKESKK
human Nav1.7, sequence (Q07699 19-218 partner): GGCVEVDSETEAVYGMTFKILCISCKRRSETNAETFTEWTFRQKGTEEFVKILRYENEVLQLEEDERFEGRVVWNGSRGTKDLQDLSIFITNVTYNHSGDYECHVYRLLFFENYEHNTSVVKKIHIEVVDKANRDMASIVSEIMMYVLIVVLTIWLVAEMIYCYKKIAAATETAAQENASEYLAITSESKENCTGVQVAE
human Nav1.5, sequence (Q14524 whole entry): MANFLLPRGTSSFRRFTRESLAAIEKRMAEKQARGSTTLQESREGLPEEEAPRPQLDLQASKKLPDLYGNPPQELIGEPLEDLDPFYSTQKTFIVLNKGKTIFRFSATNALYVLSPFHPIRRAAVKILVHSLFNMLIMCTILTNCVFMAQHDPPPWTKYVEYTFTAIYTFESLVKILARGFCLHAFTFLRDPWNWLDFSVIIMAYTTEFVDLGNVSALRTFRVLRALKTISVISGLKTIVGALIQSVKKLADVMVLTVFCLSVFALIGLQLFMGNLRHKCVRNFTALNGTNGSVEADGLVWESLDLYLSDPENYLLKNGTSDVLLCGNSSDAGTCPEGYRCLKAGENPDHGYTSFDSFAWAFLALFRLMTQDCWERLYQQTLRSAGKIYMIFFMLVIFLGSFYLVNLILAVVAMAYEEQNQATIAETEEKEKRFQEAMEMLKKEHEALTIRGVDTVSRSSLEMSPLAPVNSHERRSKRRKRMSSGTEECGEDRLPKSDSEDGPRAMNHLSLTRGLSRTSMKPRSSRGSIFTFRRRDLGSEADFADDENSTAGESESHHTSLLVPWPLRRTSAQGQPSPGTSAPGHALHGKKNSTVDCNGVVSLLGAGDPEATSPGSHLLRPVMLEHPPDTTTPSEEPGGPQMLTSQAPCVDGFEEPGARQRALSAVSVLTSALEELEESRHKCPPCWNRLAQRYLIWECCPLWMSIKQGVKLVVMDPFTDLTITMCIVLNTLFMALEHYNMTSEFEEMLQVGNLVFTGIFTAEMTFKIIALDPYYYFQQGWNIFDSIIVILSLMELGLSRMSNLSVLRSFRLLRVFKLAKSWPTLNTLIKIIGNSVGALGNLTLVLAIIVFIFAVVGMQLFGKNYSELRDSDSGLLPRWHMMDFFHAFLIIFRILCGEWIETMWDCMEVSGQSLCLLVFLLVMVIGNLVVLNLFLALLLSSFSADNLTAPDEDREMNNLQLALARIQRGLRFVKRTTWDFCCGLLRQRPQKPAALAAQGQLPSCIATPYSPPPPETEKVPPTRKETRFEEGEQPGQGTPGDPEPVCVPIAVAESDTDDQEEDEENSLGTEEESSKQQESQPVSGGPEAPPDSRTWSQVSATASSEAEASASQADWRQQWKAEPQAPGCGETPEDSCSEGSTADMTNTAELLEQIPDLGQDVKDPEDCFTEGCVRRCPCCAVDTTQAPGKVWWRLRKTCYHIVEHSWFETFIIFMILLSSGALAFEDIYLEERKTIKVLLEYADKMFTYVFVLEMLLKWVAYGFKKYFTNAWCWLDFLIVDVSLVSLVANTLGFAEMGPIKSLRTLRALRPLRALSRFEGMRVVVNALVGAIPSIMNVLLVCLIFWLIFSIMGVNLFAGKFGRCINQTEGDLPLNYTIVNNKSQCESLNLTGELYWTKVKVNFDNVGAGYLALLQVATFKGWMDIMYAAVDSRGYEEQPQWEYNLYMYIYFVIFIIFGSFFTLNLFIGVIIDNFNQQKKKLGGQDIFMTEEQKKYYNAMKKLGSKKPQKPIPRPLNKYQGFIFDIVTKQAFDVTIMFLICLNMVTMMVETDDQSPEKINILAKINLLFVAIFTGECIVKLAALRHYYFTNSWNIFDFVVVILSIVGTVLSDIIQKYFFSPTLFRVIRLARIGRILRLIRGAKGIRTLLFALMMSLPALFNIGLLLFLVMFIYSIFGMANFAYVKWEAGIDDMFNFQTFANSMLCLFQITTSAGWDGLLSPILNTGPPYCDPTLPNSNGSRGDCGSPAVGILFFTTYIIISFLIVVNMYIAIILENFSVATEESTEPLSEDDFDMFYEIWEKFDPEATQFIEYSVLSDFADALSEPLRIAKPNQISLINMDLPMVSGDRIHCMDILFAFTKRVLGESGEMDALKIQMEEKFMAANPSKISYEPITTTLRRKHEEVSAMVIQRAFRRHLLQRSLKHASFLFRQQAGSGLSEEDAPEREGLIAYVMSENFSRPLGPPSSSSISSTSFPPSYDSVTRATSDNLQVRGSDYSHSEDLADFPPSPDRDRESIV

| Structure (SMILES) | IC50 (human Nav1.5; [1]) [µM] | IC50 (human Nav1.7; [2]) [nM] | IC50 (human Nav1.5; [3]) [µM] | IC50 (human Nav1.7; [4]) [nM] |
| --- | --- | --- | --- | --- |
| N#Cc1ccc2c(c1)C[C@@H](NC(=O)c1cc3n(n1)CCC(COCC1CC1)O3)CO2 (mixture of isomers) [Example 102, N—((R)-6-cyanochroman-3-yl)-5-((cyclopropylmethoxy)methyl)-6,7-dihydro-5H-pyrazolo[5,1-b][1,3]oxazine-2-carboxamide] | ≥ 3 | < 1000 |  |  |
| N#Cc1ccc2c(c1)C[C@@H](NC(=O)c1cc3n(n1)CCC(COCC(F)(F)F)O3)CO2 (mixture of isomers) [Example 114, N—((R)-6-cyanochroman-3-yl)-5-((2,2,2-trifluoroethoxy)methyl)-6,7-dihydro-5H-pyrazolo[5,1-b][1,3]oxazine-2-carboxamide] | ≥ 3 | < 10000 |  |  |
| O=C(N[C@H]1COc2ccc(COCC(F)(F)F)cc2C1)c1cc2n(n1)CCC(COCC(F)(F)F)O2 (mixture of isomers) [Example 128, 5-((2,2,2-trifluoroethoxy)methyl)-N—((R)-6-((2,2,2-trifluoroethoxy)methyl)chroman-3-yl)-6,7-dihydro-5H-pyrazolo[5,1-b][1,3]oxazine-2-carboxamide] | 1 to 3 | < 1000 |  |  |
| N#Cc1ccc2c(c1)C[C@@H](NC(=O)c1cc3n(n1)CCC(COC(F)(F)F)O3)CO2 (mixture of isomers) [Example 133, N—((R)-6-cyanochroman-3-yl)-5-((trifluoromethoxy)methyl)-6,7-dihydro-5H-pyrazolo[5,1-b][1,3]oxazine-2-carboxamide] | 1 to 3 | < 1000 |  |  |
| O=C(N[C@H]1COc2ccc(C(F)(F)F)cc2C1)c1cc2n(n1)CCC(C(F)F)O2 (mixture of isomers) [Example 160, 5-(difluoromethyl)-N—((R)-6-(trifluoromethyl)chroman-3-yl)-6,7-dihydro-5H-pyrazolo[5,1-b][1,3]oxazine-2-carboxamide] |  |  | ≥ 3 | < 1000 |
| COc1ncc(-c2ccc3c(c2)C[C@@H](NC(=O)c2cc4n(n2)CC(CCOCC2CC2)O4)CO3)cn1 (mixture of isomers) [Example 203, 2-(2-(cyclopropylmethoxy)ethyl)-N—((R)-6-(2-methoxypyrimidin-5-yl)chroman-3-yl)-2,3-dihydropyrazolo[5,1-b]oxazole-6-carboxamide] |  |  | ≥ 3 | < 1000 |
| N#Cc1ccc2c(c1)C[C@@H](NC(=O)c1cc3n(n1)CCC(COCC1(F)CC1)O3)CO2 (mixture of isomers) [Example 532] |  |  | ≥ 3 | < 10000 |
| O=C(N[C@H]1COc2ccc(C(F)F)cc2C1)c1cn2c(n1)CCC(C(F)(F)F)C2 (single isomer, unassigned) [7 (isomer A)] | 1 to 3 | < 1000 |  |  |
| O=C(N[C@H]1COc2ccc(C(F)F)cc2C1)c1cn2c(n1)CCC(C(F)(F)F)C2 (single isomer, unassigned) [7 (isomer B)] | ≥ 3 | < 1000 |  |  |
| O=C(NC1COc2cccc(Br)c2C1)c1cn2c(n1)CCC(C(F)(F)F)C2 (single isomer, unassigned) [9 (isomer A)] | ≥ 3 | < 10000 |  |  |
| O=C(NC1COc2cccc(Br)c2C1)c1cn2c(n1)CCC(C(F)(F)F)C2 (single isomer, unassigned) [9 (isomer B)] | ≥ 3 | < 1000 |  |  |
| O=C(N[C@H]1COc2ccc(Cl)cc2C1)c1cn2c(n1)CCC(OCC(F)(F)F)C2 (single isomer, unassigned) [39 (isomer A)] | 1 to 3 | < 10000 |  |  |
| O=C(N[C@H]1COc2ccc(Cl)cc2C1)c1cn2c(n1)CCC(OCC(F)(F)F)C2 (single isomer, unassigned) [39 (isomer B)] | ≥ 3 | < 10000 |  |  |
| CCCC1CCn2nc(C(=O)N[C@H]3COc4ccc(C#N)cc4C3)cc2O1 (single isomer, unassigned) [95 (isomer A)] | ≥ 3 | < 1000 |  |  |
| CCCC1CCn2nc(C(=O)N[C@H]3COc4ccc(C#N)cc4C3)cc2O1 (single isomer, unassigned) [95 (isomer B)] | ≥ 3 |  |  |  |
| N#Cc1ccc2c(c1)C[C@@H](NC(=O)c1cc3n(n1)CCC(CC1CC1)O3)CO2 (single isomer, unassigned) [97 (isomer B)] | ≥ 3 |  |  |  |
| CCCOCC1CCn2nc(C(=O)N[C@H]3COc4ccc(C#N)cc4C3)cc2O1 (single isomer, unassigned) [101 (isomer B)] | ≥ 3 | < 10000 |  |  |
| N#Cc1ccc2c(c1)C[C@@H](NC(=O)c1cc3n(n1)CCC(COCC1CC1)O3)CO2 (single isomer, unassigned) [103 (isomer B)] | ≥ 3 | < 10000 |  |  |
| O=C(N[C@H]1COc2ccc(CC(F)F)cc2C1)c1cc2n(n1)CCC(COCC1CC1)O2 (single isomer, unassigned) [109 (isomer A)] | 1 to 3 | < 1000 |  |  |
| O=C(N[C@H]1COc2ccc(CC(F)F)cc2C1)c1cc2n(n1)CCC(COCC1CC1)O2 (single isomer, unassigned) [109 (isomer B)] | ≥ 3 | < 10000 |  |  |

| Structure (SMILES) | IC50 (human Nav1.5; [1]) [µM] | IC50 (human Nav1.7; [2]) [nM] | IC50 (human Nav1.5; [3]) [µM] | IC50 (human Nav1.7; [4]) [nM] |
| --- | --- | --- | --- | --- |
| O=C(N[C@H]1COc2ccc(-c3ccccn3)cc2C1)c1cc2n(n1)CCC(COCC1CC1)O2 (single isomer, unassigned) [111 (isomer A)] | 1 to 3 | < 1000 |  |  |
| O=C(N[C@H]1COc2ccc(-c3ccccn3)cc2C1)c1cc2n(n1)CCC(COCC1CC1)O2 (single isomer, unassigned) [111 (isomer B)] | 1 to 3 |  |  |  |
| CC1(COCC2CCn3nc(C(=O)N[C@H]4COc5ccc(C#N)cc5C4)cc3O2)CC1 (single isomer, unassigned) [113 (isomer A)] | 1 to 3 | < 1000 |  |  |
| CC1(COCC2CCn3nc(C(=O)N[C@H]4COc5ccc(C#N)cc5C4)cc3O2)CC1 (single isomer, unassigned) [113 (isomer B)] | < 1 | < 1000 |  |  |
| CCOCC1CCn2nc(C(=O)N[C@H]3COc4ccc(-c5ccccn5)cc4C3)cc2O1 (single isomer, unassigned) [124 (isomer A)] | ≥ 3 | < 1000 |  |  |
| CCOCC1CCn2nc(C(=O)N[C@H]3COc4ccc(-c5ccccn5)cc4C3)cc2O1 (single isomer, unassigned) [124 (isomer B)] | ≥ 3 | < 10000 |  |  |
| O=C(N[C@H]1COc2ccc(CC(F)F)cc2C1)c1cc2n(n1)CCC(COCC(F)(F)F)O2 (single isomer, unassigned) [127 (isomer A)] | ≥ 3 | < 1000 |  |  |
| O=C(N[C@H]1COc2ccc(CC(F)F)cc2C1)c1cc2n(n1)CCC(COCC(F)(F)F)O2 (single isomer, unassigned) [127 (isomer B)] | ≥ 3 |  |  |  |
| O=C(N[C@H]1COc2ccc(COCC(F)(F)F)cc2C1)c1cc2n(n1)CCC(COCC(F)(F)F)O2 (single isomer, unassigned) [129 (isomer B)] | 1 to 3 | < 1000 |  |  |
| O=C(N[C@H]1COc2ccc(-c3ccccn3)cc2C1)c1cc2n(n1)CCC(COCC(F)(F)F)O2 (single isomer, unassigned) [131 (isomer A)] | 1 to 3 | < 1000 |  |  |
| O=C(N[C@H]1COc2ccc(CC(F)F)cc2C1)c1cc2n(n1)CCC(CCOC(F)F)O2 (single isomer, unassigned) [148 (isomer B)] |  |  | ≥ 3 |  |
| O=C(N[C@H]1COc2ccc(COCC(F)(F)F)cc2C1)c1cc2n(n1)CCC(CCOC(F)F)O2 (single isomer, unassigned) [150 (isomer B)] |  |  | 1 to 3 |  |
| O=C(N[C@H]1COc2ccc(Cl)cc2C1)c1cc2n(n1)CCC(CNCC(F)(F)F)O2 (single isomer, unassigned) [152 (isomer B)] |  |  | ≥ 3 |  |
| Cn1ccc(-c2ccc3c(c2)C[C@@H](NC(=O)c2cc4n(n2)CC(CCOCC(F)(F)F)O4)CO3)n1 (single isomer, unassigned) [206 (isomer B)] |  |  | ≥ 3 |  |
| O=C(N[C@H]1COc2ccc(CC(F)F)cc2C1)c1cc2n(n1)CC(CCOC(F)(F)F)O2 (single isomer, unassigned) [211 (isomer B)] |  |  | < 1 |  |
| N#Cc1ccc2c(c1)C[C@@H](NC(=O)c1cc3n(n1)CC(CCCOC(F)(F)F)O3)CO2 (single isomer, unassigned) [247 (isomer B)] |  |  | 1 to 3 |  |
| O=C(N[C@H]1COc2ccc(C(F)(F)F)cc2C1)c1cc2n(n1)CCC(OCC(F)(F)F)CO2 (single isomer, unassigned) [257 (isomer B)] |  |  | ≥ 3 |  |
| O=C(N[C@H]1COc2ccc(COCC(F)(F)F)cc2C1)c1cc2n(n1)CC(CC1CCOCC1)O2 (single isomer, unassigned) [622 (isomer B)] |  |  | ≥ 3 |  |
| O=C(N[C@H]1COc2ccc(Br)cc2C1)c1cc2n(n1)CC(C(F)(F)F)O2 (some centres unmarked) [Example 445] |  |  | ≥ 3 |  |

Reference: patent US12421225B2, “Heteroaromatic amide derivative and medicament containing the same” (KAKEN PHARMACEUTICAL CO., LTD., priority 2018, dated 2025)
